Assay results as given in patent publication US9695155B2, “Herbicidal substituted pyrimidinyloxy benzene compounds” (E. I. DU PONT DE NEMOURS AND COMPANY, priority 2013, dated 2017).

Legend:
Italian ryegrass [1] = test: Test A preemergence; format: in vivo, Lolium multiflorum; settings: for Plant response rating, Ryegrass, Italian: 0 to 100 scale where 0 is no effect and 100 is complete control
In short: (§1)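 Visual 0–100 rating (100 = complete control) taken about 10 d post-treatment relative to untreated checks. Preemergence: directed soil spray on sown loam/sand pots. Postemergence: seedlings 2–10 cm, 1–2 leaf. Non-phytotoxic solvent formulation with surfactant.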

pigweed [2] = test: Test A preemergence; format: in vivo, Amaranthus retroflexus; settings: for Plant response rating, Pigweed: 0 to 100 scale where 0 is no effect and 100 is complete control
In short: as §1

rice = test: Test B flooded paddy test; format: in vivo, Oryza sativa; settings: Flood, 250 g ai/ha; 0 to 100 scale where 0 is no effect and 100 is complete control
In short: (§2)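 Compound added straight to paddy water, with pots kept flooded 3 cm above soil, on plants grown to the 2-leaf stage. Visual scoring 0-100 (100 = complete control) against untreated controls after 13 to 15 greenhouse days.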

giant foxtail [3] = test: Test A preemergence; format: in vivo, Setaria faberii; settings: for Plant response rating, Foxtail, Giant: 0 to 100 scale where 0 is no effect and 100 is complete control
In short: as §1

barnyardgrass [4] = test: Test A postemergence; format: in vivo, Echinochloa crus-galli; settings: for Plant response rating, Barnyardgrass: 0 to 100 scale, 0 no effect, 100 complete control
In short: as §1

corn = test: Test A postemergence; format: in vivo, Zea mays; settings: for Plant response rating, Corn: 0 to 100 scale, 0 no effect, 100 complete control
In short: as §1

barnyardgrass [5] = test: Test B flooded paddy test; format: in vivo, Echinochloa crus-galli; settings: Flood, 250 g ai/ha; 0 to 100 scale where 0 is no effect and 100 is complete control
In short: as §2

Heteranthera limosa = test: Test B flooded paddy test; format: in vivo; settings: Flood, 250 g ai/ha; 0 to 100 scale where 0 is no effect and 100 is complete control
In short: as §2

Italian ryegrass [6] = test: Test A postemergence; format: in vivo, Lolium multiflorum; settings: for Plant response rating, Ryegrass, Italian: 0 to 100 scale, 0 no effect, 100 complete control
In short: as §1

pigweed [7] = test: Test A postemergence; format: in vivo, Amaranthus retroflexus; settings: for Plant response rating, Pigweed: 0 to 100 scale, 0 no effect, 100 complete control
In short: as §1

kochia [8] = test: Test A postemergence; format: in vivo, Kochia scoparia; settings: for Plant response rating, Kochia: 0 to 100 scale, 0 no effect, 100 complete control
In short: as §1

giant foxtail [9] = test: Test A postemergence; format: in vivo, Setaria faberii; settings: for Plant response rating, Foxtail, Giant: 0 to 100 scale, 0 no effect, 100 complete control
In short: as §1

ragweed [10] = test: Test A preemergence; format: in vivo, Ambrosia elatior; settings: for Plant response rating, Ragweed: 0 to 100 scale where 0 is no effect and 100 is complete control
In short: as §1

sedge, umbrella = test: Test B flooded paddy test; format: in vivo, Cyperus difformis; settings: Flood, 250 g ai/ha; 0 to 100 scale where 0 is no effect and 100 is complete control
In short: as §2

kochia [11] = test: Test A preemergence; format: in vivo, Kochia scoparia; settings: for Plant response rating, Kochia: 0 to 100 scale where 0 is no effect and 100 is complete control
In short: as §1

galium = test: Test A postemergence; format: in vivo, Galium aparine; settings: for Plant response rating, Galium: 0 to 100 scale, 0 no effect, 100 complete control
In short: as §1

barnyardgrass [12] = test: Test A preemergence; format: in vivo, Echinochloa crus-galli; settings: for Plant response rating, Barnyardgrass: 0 to 100 scale where 0 is no effect and 100 is complete control
In short: as §1

blackgrass = test: Test A postemergence; format: in vivo, Alopecurus myosuroides; settings: for Plant response rating, Blackgrass: 0 to 100 scale, 0 no effect, 100 complete control
In short: as §1

wheat = test: Test A postemergence; format: in vivo, Triticum aestivum; settings: for Plant response rating, Wheat: 0 to 100 scale, 0 no effect, 100 complete control
In short: as §1

ragweed [13] = test: Test A postemergence; format: in vivo, Ambrosia elatior; settings: for Plant response rating, Ragweed: 0 to 100 scale, 0 no effect, 100 complete control
In short: as §1

[14] = 31 g ai/ha, visual, approximately 10 days
[15] = 125 g ai/ha, 0 to 100 scale where 0 is no effect and 100 is complete control

Compound | Plant response rating, Ryegrass, Italian (Italian ryegrass [1]; [14]) | Plant response rating, Pigweed (pigweed [2]; [14]) | Plant response rating, Rice (rice) | Plant response rating, Foxtail, Giant (giant foxtail [3]; [14]) | Plant response rating, Barnyardgrass (barnyardgrass [4]; 31 g ai/ha) | Plant response rating, Corn (corn; 31 g ai/ha) | Plant response rating, Barnyardgrass (barnyardgrass [5]) | Plant response rating, Ducksalad (Heteranthera limosa) | Plant response rating, Ryegrass, Italian (Italian ryegrass [6]; 31 g ai/ha) | Plant response rating, Pigweed (pigweed [7]; 31 g ai/ha) | Plant response rating, Kochia (kochia [8]; 31 g ai/ha) | Plant response rating, Foxtail, Giant (giant foxtail [9]; 31 g ai/ha) | Plant response rating, Ragweed (ragweed [10]; [14]) | Plant response rating, Sedge, Umbrella (sedge, umbrella) | Plant response rating, Kochia (kochia [11]; [14]) | Plant response rating, Galium (galium; 31 g ai/ha) | Plant response rating, Barnyardgrass (barnyardgrass [12]; [14]) | Plant response rating, Blackgrass (blackgrass; 31 g ai/ha) | Plant response rating, Wheat (wheat; 31 g ai/ha) | Plant response rating, Ragweed (ragweed [13]; 31 g ai/ha) | further results
FCc1cccc(Oc2ncc(Br)cn2)c1-n1cc(I)cn1 [Compound 244] | 0 | 0 | 0 | 0 | 0 | 0 | 0 | 40 | 0 | 20 | 20 | 0 | 0 | 0 | 0 | 70 | 0 | 0 | 0 | 0 | Ryegrass, Italian plant response rating (0 to 100 scale) (Italian ryegrass [1]; 125 g ai/ha): 0; Pigweed plant response rating (0 to 100 scale) (pigweed [2]; 125 g ai/ha): 100; Foxtail, Giant plant response rating (0 to 100 scale) (giant foxtail [3]; 125 g ai/ha): 80; Plant response rating, Barnyardgrass (barnyardgrass [4]; 125 g ai/ha): 10; Plant response rating, Corn (corn; 125 g ai/ha): 20; Plant response rating, Ryegrass, Italian (Italian ryegrass [6]; 125 g ai/ha): 0; Plant response rating, Pigweed (pigweed [7]; 125 g ai/ha): 100; Plant response rating, Kochia (kochia [8]; 125 g ai/ha): 80; Plant response rating, Foxtail, Giant (giant foxtail [9]; 125 g ai/ha): 10; Ragweed plant response rating (0 to 100 scale) (ragweed [10]; 125 g ai/ha): 0; Kochia plant response rating (0 to 100 scale) (kochia [11]; 125 g ai/ha): 40; Plant response rating, Galium (galium; 125 g ai/ha): 100; Barnyardgrass plant response rating (0 to 100 scale, 0 is no effect, 100 is complete control) (barnyardgrass [12]; 125 g ai/ha): 20; Plant response rating, Blackgrass (blackgrass; 125 g ai/ha): 30; Plant response rating, Wheat (wheat; 125 g ai/ha): 20; Plant response rating, Ragweed (ragweed [13]; 125 g ai/ha): 0
Cc1cc(C(F)(F)F)nn1-c1ccccc1Oc1ncc(Cl)cn1 [Compound 266] | 0 | 0 | 0 | 0 | 0 | 0 | 0 | 0 | 0 | 0 | 0 | 0 | 0 | 0 | 0 | 0 | 0 | 0 | 0 | 0 | Ryegrass, Italian plant response rating (0 to 100 scale) (Italian ryegrass [1]; 125 g ai/ha): 0; Pigweed plant response rating (0 to 100 scale) (pigweed [2]; 125 g ai/ha): 0; Foxtail, Giant plant response rating (0 to 100 scale) (giant foxtail [3]; 125 g ai/ha): 0; Plant response rating, Barnyardgrass (barnyardgrass [4]; 125 g ai/ha): 0; Plant response rating, Corn (corn; 125 g ai/ha): 0; Plant response rating, Ryegrass, Italian (Italian ryegrass [6]; 125 g ai/ha): 0; Plant response rating, Pigweed (pigweed [7]; 125 g ai/ha): 0; Plant response rating, Kochia (kochia [8]; 125 g ai/ha): 0; Plant response rating, Foxtail, Giant (giant foxtail [9]; 125 g ai/ha): 0; Ragweed plant response rating (0 to 100 scale) (ragweed [10]; 125 g ai/ha): 0; Kochia plant response rating (0 to 100 scale) (kochia [11]; 125 g ai/ha): 0; Plant response rating, Galium (galium; 125 g ai/ha): 0; Barnyardgrass plant response rating (0 to 100 scale, 0 is no effect, 100 is complete control) (barnyardgrass [12]; 125 g ai/ha): 0; Plant response rating, Blackgrass (blackgrass; 125 g ai/ha): 0; Plant response rating, Wheat (wheat; 125 g ai/ha): 0; Plant response rating, Ragweed (ragweed [13]; 125 g ai/ha): 0
N#Cc1cnn(-c2c(Cl)cccc2Oc2ncc(Cl)cn2)c1 [Compound 144] | 20 | 90 | 0 | 70 | 20 | 20 | 0 | 95 | 0 | 80 | 50 | 20 | 0 | 80 | 70 | 80 | 20 | 20 | 20 | 20 | Plant response rating, Ryegrass, Italian (Italian ryegrass [1]; 125 g ai/ha): 20; Plant response rating, Pigweed (pigweed [2]; 125 g ai/ha): 100; Plant response rating, Foxtail, Giant (giant foxtail [3]; 125 g ai/ha): 100; Barnyardgrass plant response rating (barnyardgrass [4]; [15]): 90; Corn plant response rating (corn; [15]): 40; Ryegrass, Italian plant response rating (Italian ryegrass [6]; [15]): 50; Pigweed plant response rating (pigweed [7]; [15]): 100; Kochia plant response rating (kochia [8]; [15]): 100; Foxtail, Giant plant response rating (giant foxtail [9]; [15]): 100; Plant response rating, Ragweed (ragweed [10]; 125 g ai/ha): 100; Plant response rating, Kochia (kochia [11]; 125 g ai/ha): 100; Galium plant response rating (galium; [15]): 90; Plant response rating, Barnyardgrass (barnyardgrass [12]; 125 g ai/ha): 90; Blackgrass plant response rating (blackgrass; [15]): 90; Wheat plant response rating (wheat; [15]): 20; Ragweed plant response rating (ragweed [13]; [15]): 80
FC(F)(F)c1cnn(-c2c(Oc3ncc(Cl)cn3)cccc2-c2ncon2)c1 [Compound 279] | 0 | 90 | 50 | 40 | 0 | 10 | 75 | 90 | 0 | 50 | 40 | 10 | 0 | 90 | 40 | 20 | 0 | 10 | 0 | 20 | Ryegrass, Italian plant response rating (0 to 100 scale) (Italian ryegrass [1]; 125 g ai/ha): 0; Pigweed plant response rating (0 to 100 scale) (pigweed [2]; 125 g ai/ha): 100; Foxtail, Giant plant response rating (0 to 100 scale) (giant foxtail [3]; 125 g ai/ha): 50; Plant response rating, Barnyardgrass (barnyardgrass [4]; 125 g ai/ha): 30; Plant response rating, Corn (corn; 125 g ai/ha): 10; Plant response rating, Ryegrass, Italian (Italian ryegrass [6]; 125 g ai/ha): 50; Plant response rating, Pigweed (pigweed [7]; 125 g ai/ha): 80; Plant response rating, Kochia (kochia [8]; 125 g ai/ha): 90; Plant response rating, Foxtail, Giant (giant foxtail [9]; 125 g ai/ha): 50; Ragweed plant response rating (0 to 100 scale) (ragweed [10]; 125 g ai/ha): 10; Kochia plant response rating (0 to 100 scale) (kochia [11]; 125 g ai/ha): 90; Plant response rating, Galium (galium; 125 g ai/ha): 80; Barnyardgrass plant response rating (0 to 100 scale, 0 is no effect, 100 is complete control) (barnyardgrass [12]; 125 g ai/ha): 10; Plant response rating, Blackgrass (blackgrass; 125 g ai/ha): 40; Plant response rating, Wheat (wheat; 125 g ai/ha): 30; Plant response rating, Ragweed (ragweed [13]; 125 g ai/ha): 40
